18 compounds from patent publication US8772505B2, “Antiviral compounds composed of three aligned aryl moieties to treat diseases such as hepatitis C” (Merck Sharp & Dohme Corp., priority 2009, dated 2014) can be followed below.

SMILES strings stand for the structures.

The test system of the first test is HCV replicon genotype 1b c16. As to the kind of experiment: HCV replicon assay, genotype 1b c16. To be noted: Hepatitis C virus. It counts as cell-based. As for the experimental part: (§1) To measure cell-based anti-HCV activity of selected compounds of the present invention, replicon cells were seeded at 5000 cells/well in 96-well collagen I-coated Nunc plates in the presence of the test compound. Various concentrations of test compound, typically in 10 serial 2-fold dilutions, were added to the assay mixture, with the starting concentration ranging from 250 μM to 1 μM. The final concentration of DMSO was 0.5%, fetal bovine serum was 5%, in the assay media. Cells were harvested on day 3 by the addition of 1× cell lysis buffer (Ambion cat #8721). The replicon RNA level was measured using real time PCR (Taqman assay). The amplicon was located in 5B. The PCR primers were: 5B.2F, ATGGACAGGCGCCCTGA (SEQ. ID NO. 1); 5B.2R, […] (SEQ. ID NO. 2); the probe sequence was FAM-labeled CACGCCATGCGCTGCGG (SEQ. ID NO. 3). GAPDH RNA was used as endogenous control and was amplified in the same reaction as NS5B (multiplex PCR) using primers and VIC-labeled probe recommended by the manufacturer (PE Applied Biosystem). […] Alternatively, to quantitate the absolute amount of replicon RNA, a standard curve was established by including serially diluted T7 transcripts of replicon RNA in the Taqman assay. […]
As for `COC(=O)N[C@H](C(=O)N1CCC[C@H]1c1nc2ccc(-c3ccc(-c4ccc5nc([C@@H]6CCCN6C(=O)[C@@H](NC(=O)OC)C(C)C)[nH]c5c4)c(OC(F)(F)F)c3)cc2[nH]1)C(C)C` [Compound 129], the EC50 came out at 0.003 nM.

Another test has as its system HCV replicon. As to the kind of experiment: Cell-based HCV replicon assay (EC90). Particulars: Hepatitis C virus, 72 h; replicon RNA by real time PCR (Taqman), day 3; class symbols; read-out: Biological Activity (EC90, HCV replicon). As for the experimental part:
To measure cell-based anti-HCV activity of selected compounds of the present invention, replicon cells were seeded at 5000 cells/well in 96-well collagen I-coated Nunc plates in the presence of the test compound. Various concentrations of test compound, typically in 10 serial 2-fold dilutions, were added to the assay mixture, with the starting concentration ranging from 250 μM to 1 μM. The final concentration of DMSO was 0.5%, fetal bovine serum was 5%, in the assay media. Cells were harvested on day 3 by the addition of 1× cell lysis buffer (Ambion cat #8721). The replicon RNA level was measured using real time PCR (Taqman assay). The amplicon was located in 5B. The PCR primers were: 5B.2F, ATGGACAGGCGCCCTGA (SEQ. ID NO. 1); 5B.2R, […] (SEQ. ID NO. 2); the probe sequence was FAM-labeled CACGCCATGCGCTGCGG (SEQ. ID NO. 3). GAPDH RNA was used as endogenous control and was amplified in the same reaction as NS5B (multiplex PCR) using primers and VIC-labeled probe recommended by the manufacturer (PE Applied Biosystem). The real-time RT-PCR reactions were run on ABI PRISM 7900HT Sequence Detection System using the following program: 48° C. for 30 min, 95° C. for 10 min, 40 cycles of 95° C. for 15 sec, 60° C. for 1 min. The ACT values (CT5B-CTGAPDH) were plotted against the concentration of test compound and fitted to the sigmoid dose-response model using XLfit4 (MDL). EC50 was defined as the concentration of inhibitor necessary to achieve ΔCT=1 over the projected baseline; EC90 the concentration necessary to achieve ΔCT=3.2 over the baseline. Alternatively, to quantitate the absolute amount of replicon RNA, a standard curve was established by including serially diluted T7 transcripts of replicon RNA in the Taqman assay. All Taqman reagents were from PE Applied Biosystems. Such an assay procedure was described in detail in e.g. Malcolm et al., Antimicrobial Agents and Chemotherapy 50: 1013-1020 (2006).
HCV replicon assay data was calculated for selected compounds of the present invention using this method.
On to `c1cc(-c2ccc3nc([C@@H]4CCCN4)[nH]c3c2)ncc1-c1ccc2nc([C@@H]3CCCN3)[nH]c2c1` [Compound 43], for which the 90% effect concentration (EC90) is > 1000 nM. As for `COC(=O)N[C@H](C(=O)N1CCC[C@H]1c1nc2ccc(-c3ccc(-c4ccc5nc([C@@H]6CCCN6C(=O)[C@@H](NC(=O)OC)C(C)C)[nH]c5c4)c4c3ccn4C)cc2[nH]1)C(C)C` [Compound 133], the EC90 was < 1 nM. `CC(=O)N1CCC[C@H]1c1nc2ccc(-c3ccc(-c4ccc5nc([C@@H]6CCCN6C(C)=O)[nH]c5c4)nc3)cc2[nH]1` [Compound 42]: the EC90 is > 1000 nM. For `[2H]C([2H])([2H])C([2H])(C([2H])([2H])[2H])[C@]([2H])(NC(=O)OC)C(=O)N1C([2H])([2H])C([2H])([2H])C([2H])([2H])[C@]1([2H])c1nc2ccc(-c3ccc(-c4ccc5nc([C@]6([2H])N(C(=O)[C@@]([2H])(NC(=O)OC)C([2H])(C([2H])([2H])[2H])C([2H])([2H])[2H])C([2H])([2H])C([2H])([2H])C6([2H])[2H])[nH]c5c4)c(OC(F)(F)F)c3)cc2[nH]1` [Compound 135], the EC90 is < 1 nM. Still for that read-out and setting: to `COC(=O)N[C@H](C(=O)N1CCC[C@H]1c1nc2ccc(-c3ccc(-c4ccc5nc([C@@H]6CCCN6C(=O)[C@@H](NC(=O)OC)C(C)C)[nH]c5c4)c4ccccc34)cc2[nH]1)C(C)C` [Compound 59] belongs < 1 nM; to `COC(=O)N[C@H](C(=O)N1CCC[C@H]1c1nc2ccc(-c3ccc(-c4ccc5nc([C@@H]6CCCN6C(=O)[C@@H](NC(=O)OC)C(C)C)[nH]c5c4)s3)cc2[nH]1)C(C)C` [Compound 55], < 1 nM.

Consider `CCCCc1cc(-c2ccc3nc([C@@H]4CCCN4C(=O)[C@@H](NC(=O)OC)C(C)C)[nH]c3c2)sc1-c1ccc2nc([C@@H]3CCCN3C(=O)[C@@H](NC(=O)OC)C(C)C)[nH]c2c1` [Compound 121], for which the EC90 was < 1 nM. Take `COC(=O)N[C@H](C(=O)N1CCC[C@H]1c1nc2ccc(-c3cc(-c4ccccc4)c(-c4ccc5nc([C@@H]6CCCN6C(=O)[C@@H](NC(=O)OC)C(C)C)[nH]c5c4)s3)cc2[nH]1)C(C)C` [Compound 128]: the EC90 was < 1 nM. On the same count and under the same terms, to `COC(=O)N[C@H](C(=O)N1CCC[C@H]1c1nc2ccc(-c3ccc(-c4ccc5nc([C@@H]6CCCN6C(=O)[C@@H](NC(=O)OC)C(C)C)[nH]c5c4)nc3)cc2[nH]1)C(C)C` [Compound 44] belongs < 1 nM; to `COC(=O)N[C@H](C(=O)N1CCC[C@H]1c1nc2ccc(-c3cnc(-c4ccc5nc([C@@H]6CCCN6C(=O)[C@@H](NC(=O)OC)C(C)C)[nH]c5c4)cn3)cc2[nH]1)C(C)C` [Compound 64], < 1 nM; to `COC(=O)N[C@H](C(=O)N1CCC[C@H]1c1nc2cc(F)c(-c3cc(C)c(-c4cc5[nH]c([C@@H]6CCCN6C(=O)[C@@H](NC(=O)OC)C(C)C)nc5cc4F)s3)cc2[nH]1)C(C)C` [Compound 119], < 1 nM. For `COC(=O)N[C@H](C(=O)N1CCC[C@H]1c1nc2ccc(-c3ccc(-c4ccc5nc([C@@H]6CCCN6C(=O)[C@@H](NC(=O)OC)C(C)C)[nH]c5c4)c(OC(F)(F)F)c3)cc2[nH]1)C(C)C` [Compound 129], the EC90 was < 1 nM. Same read-out and setting: to `[2H]C([2H])([2H])C([2H])(C([2H])([2H])[2H])[C@]([2H])(NC(=O)OC)C(=O)N1CCC[C@H]1c1nc2ccc(-c3ccc(-c4ccc5nc([C@@H]6CCCN6C(=O)[C@@]([2H])(NC(=O)OC)C([2H])(C([2H])([2H])[2H])C([2H])([2H])[2H])[nH]c5c4)c(OC(F)(F)F)c3)cc2[nH]1` [Compound 134] belongs < 1 nM.

Still in this test, the particulars now being: Hepatitis C virus, 72 h; replicon RNA by real time PCR (Taqman), day 3; numeric, unit inferred; read-out: Biological Activity (EC90, HCV replicon).
On to `COC(=O)N[C@H](C(=O)N1CCC[C@H]1c1nc2ccc(-c3cc(C)c(-c4ccc5nc([C@@H]6CCCN6C(=O)[C@@H](NC(=O)OC)C(C)C)[nH]c5c4)s3)cc2[nH]1)C(C)C` [Compound 103], for which the EC90 is 0.005 nM.

Turning to `C#CC[C@@H](NC(=O)OC)C(=O)N1CCC[C@H]1c1nc2ccc(-c3ccc(-c4ccc5nc([C@@H]6CCCN6C(=O)[C@@H](CC#C)NC(=O)OC)[nH]c5c4)s3)cc2[nH]1` [Compound 99], the EC90 was found to be 0.2 nM. Still for that read-out and setting: in the case of `COC(=O)N[C@H](C(=O)N1CCC[C@H]1c1nc2cc(F)c(-c3ccc(-c4cc5[nH]c([C@@H]6CCCN6C(=O)[C@@H](NC(=O)OC)C(C)C)nc5cc4F)s3)cc2[nH]1)C(C)C` [Compound 115] it was 0.003 nM.

The test is the same for the next values; noted with them: Hepatitis C virus, 72 h; replicon RNA by real time PCR (Taqman), day 3; numeric; read-out: Biological Activity (EC90, HCV replicon).
With `COC(=O)N[C@H](C(=O)N1CCC[C@H]1c1ncc(-c2ccc(-c3ccc4nc([C@@H]5CCCN5C(=O)[C@@H](NC(=O)OC)C(C)C)[nH]c4c3)[nH]c2=O)[nH]1)C(C)C` [Compound 91], the EC90 stood at 6 nM. The same measure, in the same setting: in the case of `CCCCc1cc(-c2ccc3nc([C@@H]4CCCN4)[nH]c3c2)sc1-c1ccc2nc([C@@H]3CCCN3)[nH]c2c1` [Compound 72] it was 26 nM.

The next test deals with HCV replicon genotype 1a 1A7. As to the kind of experiment: HCV replicon assay, genotype 1a 1A7. The test is classed as cell-based. Particulars: Hepatitis C virus. As to the method: as §1
Regarding `COC(=O)N[C@H](C(=O)N1CCC[C@H]1c1nc2ccc(-c3ccc(-c4ccc5nc([C@@H]6CCCN6C(=O)[C@@H](NC(=O)OC)C(C)C)[nH]c5c4)c(OC(F)(F)F)c3)cc2[nH]1)C(C)C` [Compound 129], the EC50 was 0.05 nM.
